Measured values from patent US20260124166A1, “COMPOSITIONS AND METHODS USING GLYCINE TO REDUCE BIOLOGICAL AGE OF AN ADULT ANIMAL” (Société des Produits Nestlé S.A., priority 2022, published 2026).

Experiments:
[1] = old mice (21 months), 1.6 g/kg food glycine in diet for 6 weeks, vs old control diet and young (4 months) mice
From the text: 28 wild-type C57BL/6J mice of 21-months old and 12 wild-type C57BL/6J mice of 4-months old were kept in a temperature-and humidity-controlled environment with a 12:12-h light-dark cycle. Mice had access to nesting and enrichment materials and were provided with ad libitum access to water and food.
(§1) Mice underwent to a dietary supplementation for 6 weeks. The young control group (n=12) and old control group (n=14) received a commercial standard powdered diet (Safe 150, Safe Diets), with 20% humidity. […] At the end of the treatment, mice were euthanized with isoflurane after 2-hours fasting. Muscle gastrocnemius has been dissected and samples were snap frozen in liquid nitrogen and stored at −80° C.
Tissue pieces were excised on dry ice with liquid nitrogen cooled scalpels and kept at −80° C. until extraction. For extraction, samples were homogenized in 300 μL −20 ° C. methanol/water (5:3), including a fully labelled 13C yeast biomass as internal standard, using 5 mm stainless steel beads in a tissue grinder (Qiagen TissueLyser II) for up to 3 min at 23 Hz. […] The protein pellets were quantified with a bicinchoninic acid assay for later normalization and the polar phases, containing the metabolites of interest, were dried overnight in a vacuum centrifuge at 4° C. and 5 mbar and stored at −80° C. until analysis. […]

[2] = old mice (21 months), 1.6 g/kg food glycine in diet for 6 weeks, compared to old mice with control diet
Method: All animal experiments were performed according to national Swiss and EU ethical guidelines and approved by the local animal experimentation committee under license VD3519. 28 wild-type C57BL/6J mice of 21-months old and 12 wild-type C57BL/6J mice of 4-months old were kept in a temperature-and humidity-controlled environment with a 12:12-h light-dark cycle. Mice had access to nesting and enrichment materials and were provided with ad libitum access to water and food.
as §1
DNA extraction was performed on 100 mg of muscle using QIAGEN DNeasy Blood and Tissue kit (Cat. No: 69506) and following manufacturer recommendations. DNA was quantified using the DropSense technology (Unchained Labs). […]
Raw data were sent to the Clock Foundation, who performed the analyses to calculate the biological age of the samples. […] Data were plotted and analysed using R. One-tailed parametric t statistics was performed to test the effect of the glycine supplementation compared to the control diet.

## NCC(=O)O [glycine]
[1]
  glycine levels in muscle: significantly restores them toward young levels
[2]
  biological age (DNA methylation, muscle specific clock): biological age decreases significantly
